Laboratory results published in patent US20250195490A1, “ALPHA-METHYLENE AND AMINOMETHYL LACTONES AND LACTAMS FOR TREATMENT OF CLOSTRIDIOIDES DIFFICILE INFECTION (CDI)” (Purdue Research Foundation, priority 2022, published 2025).
Converted amounts (≈) assume the structure as drawn.

Legend:
[1] = system: L. reuteri; assay: MIC against human normal gut microbiota: L. reuteri; assay type: cell-based, Lactobacillus reuteri; settings: L. reuteri HM 120
Excerpt: (§1) The activity of the selected lactones against the human gut microbiota was also examined. Microbiota interfere with C. difficile's ability to colonize the gastrointestinal tract and subsequently cause infection. Many antibiotics inhibit/kill the endogenous microflora, which permits enhanced colonization by C. difficile and infection. Three different bacterial species that are present in the gut microflora were used in this experiment; Bifidobacterium (anaerobic Gram-positive bacteria), Bacteroides (anaerobic Gram-negative bacteria) and Lactobacillus (microaerophilic Gram-positive bacteria). Ideal compounds/drugs are those with selective antibacterial activity against C. difficile so as to protect the indigenous microflora present in the GI tract from being damaged/killed (which will exacerbate infections caused by C. difficile).
(§2) Bifidobacterium and Bacteroides were first grown for 48 hours at 37° C., anaerobically, using brain heart infusion supplemented (BHIS) agar (brain heart infusion agar supplemented with hemin, vitamin K and L-cysteine). Lactobacillus was cultivated on MRS agar and incubated in the presence of 5% CO2 for 48 hours at 37° C. Each bacterium was suspended in phosphate-buffered saline (PBS) to achieve 0.5 McFarland standard and subsequently diluted in brain heart infusion supplemented broth (for Bifidobacterium and Bacteroides) or in MRS broth (for Lactobacillus) to achieve a bacterial inoculum of approximately 5×10^5 CFU/mL. Bacteria were then seeded in 96-well plates containing serial dilutions of the compounds and incubated for 48 hours. MICs reported in Table 4 are the minimum concentration of compound/control drug that inhibited the visual growth of bacteria.

[2] = system: Bi. longum; assay: MIC against human normal gut microbiota: Bifidobacterium longum; assay type: cell-based; settings: Bi. longum HM 848
Excerpt: as §1, §2

[3] = system: L. casei; assay: MIC against human normal gut microbiota: L. casei; assay type: cell-based, Lactobacillus casei; settings: L. casei HM 334
Excerpt: as §1, §2

[4] = system: L. gasseri; assay: MIC against human normal gut microbiota: L. gasseri; assay type: cell-based, Lactobacillus gasseri; settings: L. gasseri HM 407
Excerpt: as §1, §2

[5] = system: Ba. dorsei; assay: MIC against human normal gut microbiota: Bacteroides dorsei; assay type: cell-based
Excerpt: as §1, §2

[6] = system: clinically important Clostridioides difficile strains; assay: MIC against clinically important Clostridioides difficile strains; assay type: cell-based
Procedure: (§3) The antibacterial activity of compounds 48, 50, 51, 61 and 85 against a panel of Clostridioides difficile strains was evaluated. A bacterial solution equivalent to 0.5 McFarland standard was prepared and diluted in brain heart infusion broth supplemented with hemin and vitamin K. Compounds and control drugs were added in the first row of 96-well plates and serially diluted with media containing bacteria (to achieve a concentration gradient ranging from 128 to 1 μg/mL). Plates were then incubated anaerobically at […] for 48 hours.

[7] = system: hypervirulent Clostridioides difficile strains; assay: MIC against hypervirulent Clostridioides difficile strains; assay type: cell-based
Procedure: as §3

[8] = system: L. crispatus; assay: MIC against human normal gut microbiota: L. crispatus; assay type: cell-based, Lactobacillus crispatus
Excerpt: as §1, §2

[9] = system: MRSA (USA300); assay: microbe, parasite or virus in culture; assay type: cell-based, Staphylococcus aureus; settings: aerobic, 37° C., at least 18 hours
Procedure: (§4) Method: The minimum inhibitory concentration (MIC) of the compounds and control drugs, linezolid (antibiotic), vancomycin (antibiotic), 5-fluorocytosine (5-FC, antifungal drug), and fluconazole (antifungal drug) was determined using the broth microdilution method according to the guidelines outlined by the Clinical and Laboratory Standards Institute (CLSI) against clinically relevant bacterial (methicillin-resistant Staphylococcus aureus (MRSA), vancomycin-resistant Enterococcus faecalis (VRE), vancomycin-resistant Enterococcus faecium (VRE), Clostridioides difficile and Escherichia coli) and fungal (Candida albicans) strains. A solution equivalent to 0.5 McFarland standard was prepared from each strain and diluted in cation-adjusted Mueller-Hinton broth (for S. aureus and E. coli), tryptone soy broth (for E. faecalis), or brain heart infusion broth (for E. faecium) to achieve a bacterial inoculum of about 5×10^5 CFU/mL. C. difficile strains were cultured in brain heart infusion broth supplemented with hemin and vitamin K. C. albicans was diluted in RPMI medium supplemented with 3-(N-morpholino) propanesulfonic acid to achieve a fungal concentration of about 1.5×10^3 CFU/mL. Compounds and control drugs were added in the first row of the 96-well plates and diluted with media containing bacteria (to achieve a concentration gradient ranging from 128 to 1 μg/mL). For MRSA, VRE, and E. coli strains, plates were then incubated aerobically at 37° C. for at least 18 hours. C. albicans was incubated aerobically at 37° C. for 24 hours. Plates containing C. difficile were incubated anaerobically at […] for 48 hours.

[10] = system: Bi. breve; assay: MIC against human normal gut microbiota: Bifidobacterium breve; assay type: cell-based; settings: Bi. breve HM 856
Excerpt: as §1, §2

[11] = system: Ba. fragilis; assay: MIC against human normal gut microbiota: Bacteroides fragilis; assay type: cell-based
Excerpt: as §1, §2

[12] = system: Clostridioides difficile; assay: MIC by broth microdilution against Clostridioides difficile (Table 1); assay type: cell-based; settings: anaerobic, 48 hours; strain BAA-1870
Procedure: as §4

`COc1cc(C2OC(=O)C(CN3CCCCC3)C2c2ccccc2Br)ccc1OCc1ccccc1` (racemic) [Compound 27] gave an MIC [1] of over 128 µg/mL, an MIC [2] of over 128 µg/mL and an MIC [3] of over 128 µg/mL. For the same compound, the MIC [4] was over 128 µg/mL, the MIC ([5]; Ba. dorsei HM 29) was over 128 µg/mL and the MIC ([5]; Ba. dorsei HM 717) was over 128 µg/mL. The MIC ([6]; CD strain 16) was 1 µg/mL (≈ 1.82 µM), the MIC ([6]; CD strain 18) was 2 µg/mL (≈ 3.63 µM) and the MIC ([6]; CD strain 19) was 1 µg/mL (≈ 1.82 µM). The MIC ([6]; CD strain 1801) was 1 µg/mL (≈ 1.82 µM), the MIC ([6]; CD strain 43255) was 1 µg/mL (≈ 1.82 µM) and the MIC ([6]; CD strain P6) was 2 µg/mL (≈ 3.63 µM). The MIC ([6]; CD strain P7) was 1 µg/mL (≈ 1.82 µM), the MIC ([6]; CD strain P13) was 1 µg/mL (≈ 1.82 µM) and the MIC ([6]; CD strain P19) was 2 µg/mL (≈ 3.63 µM). For the same compound, the MIC ([7]; CD strain 81) was 2 µg/mL (≈ 3.63 µM), the MIC ([7]; CD strain 82) was 2 µg/mL (≈ 3.63 µM) and the MIC ([7]; CD strain 83) was 2 µg/mL (≈ 3.63 µM). The MIC ([7]; CD strain 84) was 4 µg/mL (≈ 7.27 µM), the MIC ([7]; CD strain 85) was 2 µg/mL (≈ 3.63 µM) and the MIC ([7]; CD strain 86) was 2 µg/mL (≈ 3.63 µM). It also gave an MIC ([7]; CD strain 87) of 2 µg/mL (≈ 3.63 µM), an MIC ([7]; CD strain 90) of 1 µg/mL (≈ 1.82 µM) and an MIC ([7]; CD strain 49279) of 2 µg/mL (≈ 3.63 µM). For the same compound, the MIC ([7]; CD strain 49287) was 1 µg/mL (≈ 1.82 µM), the MIC ([7]; CD strain 49291) was 1 µg/mL (≈ 1.82 µM) and the MIC ([8]; L. crispatus HM 375) was over 128 µg/mL. The MIC ([8]; L. crispatus HM 421) was over 128 µg/mL, the “MIC MRSA (USA300)” value [9] was over 128 µg/mL and the MIC [10] was over 128 µg/mL. The MIC ([11]; Ba. fragilis HM 709) was over 128 µg/mL, the MIC ([11]; Ba. fragilis HM 710) was over 128 µg/mL and the MIC ([11]; Ba. fragilis HM 711) was over 128 µg/mL. The MIC ([11]; Ba. fragilis HM 714) was over 128 µg/mL and the “MIC Clostridioides difficile” value [12] was 1 µg/mL (≈ 1.82 µM).
